Common to all, as to type: physicochemical
The nature of series [1]: DVS (dynamic moisture adsorption analysis). The note with it: 0% RH-80% RH.
Series [2] can be described thus: TGA (thermogravimetric analysis).
Another series can be described thus: Hot stage XRD.
Series [3] can be described thus: Stability evaluation of crystal form in a dry state at room temperature. The settings on record: placed in a dry state at room temperature for 3 days.
Series [4] in a line: Crystal mush experiment at room temperature. The settings on record: in ethanol and in a mixed solvent of ethanol/water at room temperature. On the procedure:
(§1) A competitive experiment between crystal form 1 and crystal form A of polymyxin sulfate was carried out to investigate crystal form stability of the two crystal forms in the solvent, water and ethanol, which are commonly used in the preparation, and to evaluate the conversion of the two crystal forms, in order to provide reference for subsequent preparation operations such as granulation.

The nature of series [5]: Crystal form competitive experiment. The settings on record: in ethanol and in a mixed solvent of ethanol/water at room temperature. On the procedure: as §1
1. Equal amounts of samples of crystal form 1 and form A were taken and mixed uniformly to obtain an initial mixed sample, which was used for XRD detection (FIG. 14).
2. The uniformly-mixed sample was divided into two portions, to one of which was added 200 μL ethanol, and to another of which was added 300 μL mixed solvent of ethanol/water=5/1 (v/v), to form a suspension. The suspension was stirred at room temperature, and centrifuged and sampled at different times for XRD detection.

Two substances from patent US20210283213A1, “CRYSTAL OF POLYMYXIN B1 SULFATE, POLYMYXIN B2 SULFATE OR THEIR MIXTURE AND PREPARATION METHOD THEREOF” (Hubei Ruihaoanke Pharmaceutical Technology Development Co., …, priority 2016, published 2021) can be followed below.

Turning to polymyxin B1 sulfate [crystal form 1], the hygroscopicity entry in series [1] is on record as “extremely strong hygroscopicity”. The decomposition temperature entry in series [2] was “XRD, and the decomposition temperature was 222 °C”. For the same substance, the “crystal form change on heating” value in the series “Hot stage XRD” was “The crystal form has not changed when heating up to 170 °C”. Further, in series [3], the Stability evaluation entry is “Unstable, the crystal form changed to crystal form A when placed”.
polymyxin B1 sulfate [crystal form A]: the hygroscopicity result in series [1] is reported as “extremely strong hygroscopicity”. In addition, the “most stable crystal form (crystal mush experiment)” value in series [4] was “most stable crystal form”. Also, the decomposition temperature result in series [2] is “with hot stage XRD, and the decomposition temperature was 213 °C”. Moreover, the “most stable crystal form (competitive experiment)” value in series [5] is reported as “most stable crystal form”.
